How the values were obtained:
[1] = target: T1, GBA3 (Homo sapiens, UniProt Q9H227)
T1 sequence (Q9H227 1-469): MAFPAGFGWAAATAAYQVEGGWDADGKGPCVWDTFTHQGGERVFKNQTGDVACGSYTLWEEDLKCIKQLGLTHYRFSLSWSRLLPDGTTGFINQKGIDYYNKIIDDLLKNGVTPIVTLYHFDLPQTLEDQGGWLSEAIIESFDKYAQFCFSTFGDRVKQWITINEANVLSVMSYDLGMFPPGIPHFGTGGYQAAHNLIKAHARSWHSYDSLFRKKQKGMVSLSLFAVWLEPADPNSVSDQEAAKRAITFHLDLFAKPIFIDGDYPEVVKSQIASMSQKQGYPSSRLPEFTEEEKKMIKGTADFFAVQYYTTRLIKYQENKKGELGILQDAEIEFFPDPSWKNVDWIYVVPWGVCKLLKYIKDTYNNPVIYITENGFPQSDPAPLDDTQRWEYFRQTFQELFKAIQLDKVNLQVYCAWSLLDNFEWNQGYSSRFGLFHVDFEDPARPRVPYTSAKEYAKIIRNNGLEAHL
Protocol: (§1) Next, all new compounds were screened on their GBA1/GBA2/GBA3 inhibitory potency in a fluorogenic substrate assay (enzyme‐mediated hydrolysis of the fluorogenic substrate, 4‐methylumbelliferyl β‐D‐glucopyranoside; 4‐MU‐β‐D‐Glu). […] The IC50 values were determined after incubation of each individual compound with either recombinant human GBA1 (rhGBA1) or lysates of HEK293T cells overexpressing GBA2 or GBA3.
(§2) All assays were performed in 96-well plates (Greiner, black, flat-bottomed) at 37 °C. For GBA1, 3.5 ng of rhGBA1 (Imiglucerase,
(§3) Sanofi Genzyme) was dissolved in 12.5 μL McIlvaine buffer (150 mM citric acid-Na2HPO4, pH 5.2), supplemented with 0.1%
(§4) (v/v) Triton X-100, and 0.2% (w/v) sodium taurocholate, 0.1% (w/v) bovine serum albumin (BSA). Lysates of GBA1/GBA2 KO
(§5) HEK293T cells overexpressing GBA2 or GBA3 were prepared by sonication on ice with Polytron PT 1300D son icator
(§6) (Kinematica) in potassium phosphate buffer (25 mM K2HPO4/KH2PO4, pH 6.5, supplemented with 0.1% (v/v) Triton X-100 and protease inhibitor cocktail (EDTA-free, Roche)). The lysates were diluted to 12.5 μL in McIlvaine buffer (150 mM, pH 5.8 for
(§7) GBA2 or pH 6.0 for GBA3) supplemented with 0.1% (w/v) bovine serum albumin (BSA). The enzymes were incubated with 12.5
(§8) μL solution of inhibitors in McIlvaine buffer (150 mM, pH appropriate for each enzyme, final concentration 1% DMSO) at 37 °C
(§9) for 30 minutes (-configured aziridines and ABP 3) or 3 hours (epoxides and -configured aziridines). This was followed by
(§10) incubation of the samples with 100 μL of fluorogenic substrate mixtures for 30 minutes. The substrate mixtures diluted in
(§11) McIlvaine buffer (supplemented with 0.1% (w/v) BSA) at optimal pH for each enzyme were as follows: GBA1, 3.75 mM 4-MU-
(§12) -D-glucopyranoside (Glycosynth) at pH 5.2, supplemented with 0.2% (w/v) sodium taurocholate, 0.1% (v/v) Triton X-100, 0.1%
(§13) (w/v) bovine serum albumin (BSA); GBA2, 4-MU--D-glucopyranoside (3.75 mM) at pH 5.8; GBA3, 4-MU--D-glucopyranoside
(§14) (3.75 mM) at pH 6.0. After stopping the enzyme reaction with 200 μL 1 M NaOH-glycine (pH 10.3), 4-methylumbelliferone
(§15) fluorescence was measured with a fluorimeter LS55 (Perkin Elmer) with λEX 366 nm and λEM 445 nm. Enzyme activities were
(§16) determined by subtraction of background (measured for incubations without enzyme), normalized with enzyme activity of the
(§17) control sample (vehicle incubation) and curve-fitted to inhibitor concentrations using GraphPad Prism 9.0 software by the
(§18) [inhibitor] vs. response - variable slope (four parameters) method to determine IC 50 values.
(§19) values from triplicate or duplicate experiments (n = 3 biological replicates) and error ranges indicate standard deviation (SD).

[2] = target: T2, recombinant human GBA1 (rhGBA1) (Homo sapiens, UniProt P04062, R534H); test: fluorogenic substrate assay (4-MU-β-D-Glu hydrolysis), rhGBA1
T2 sequence (P04062 40-536 R534H): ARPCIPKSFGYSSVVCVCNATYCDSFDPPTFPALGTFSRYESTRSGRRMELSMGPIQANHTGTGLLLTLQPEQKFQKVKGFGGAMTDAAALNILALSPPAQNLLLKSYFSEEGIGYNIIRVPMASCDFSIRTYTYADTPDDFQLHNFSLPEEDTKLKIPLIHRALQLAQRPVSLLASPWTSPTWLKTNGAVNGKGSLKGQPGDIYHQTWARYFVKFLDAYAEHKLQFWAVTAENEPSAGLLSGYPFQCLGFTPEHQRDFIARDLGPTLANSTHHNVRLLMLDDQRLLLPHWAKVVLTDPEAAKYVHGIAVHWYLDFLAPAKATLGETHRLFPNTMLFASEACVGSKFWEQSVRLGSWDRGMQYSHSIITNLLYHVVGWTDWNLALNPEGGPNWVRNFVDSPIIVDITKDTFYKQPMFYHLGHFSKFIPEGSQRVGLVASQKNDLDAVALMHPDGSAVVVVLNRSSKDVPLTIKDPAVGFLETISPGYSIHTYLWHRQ
Protocol: as §1, §2, §3, §4, §5, §6, §7, §8, §9, §10, §11, §12, §13, §14, §15, §16, §17, §18, §19

[3] = tested on: endogenous GBA1 and overexpressed human GBA2 and GBA3; test: ABP labeling (ABPP) in lysates of GBA2/GBA3 overexpressing HEK293T cells, selectivity pattern; format: binding; conditions: pH 6.0, 30 min
Protocol: As a negative control, lysates of HEK293T cells with knocked‐out (KO) expression of GBA1 and GBA2 were incubated with a high concentration of each ABP. The observed selectivity patterns of most compounds were in line with the results of the fluorogenic substrate assay except for 50, which labeled GBA1 less potently than expected. […] For instance, besides labeling GBA2 and GBA3 (104.6 kDa and 53.6 kDa respectively), ABP 5 labels three major off‐target proteins (~45 kDa, ~55 kDa, and ~65 kDa), and these bands appear also in the experiments with the other deoxygenated ABPs (Figure 3B). Possibly, the deoxygenated ABPs are more hydrophobic compared to ABPs 1 and 3, causing them to more readily associate with hydrophobic protein patches and subsequently engage in reactions.
described previously.6,16
protease inhibitor cocktail (EDTA-free, Roche)).
The enzymes were incubated with 12.5
The substrate mixtures diluted in
with BODIPY fluorescent ABP 2.

[4] = target: T3, GBA2 (Homo sapiens, UniProt Q9HCG7)
T3 sequence (Q9HCG7 1-927): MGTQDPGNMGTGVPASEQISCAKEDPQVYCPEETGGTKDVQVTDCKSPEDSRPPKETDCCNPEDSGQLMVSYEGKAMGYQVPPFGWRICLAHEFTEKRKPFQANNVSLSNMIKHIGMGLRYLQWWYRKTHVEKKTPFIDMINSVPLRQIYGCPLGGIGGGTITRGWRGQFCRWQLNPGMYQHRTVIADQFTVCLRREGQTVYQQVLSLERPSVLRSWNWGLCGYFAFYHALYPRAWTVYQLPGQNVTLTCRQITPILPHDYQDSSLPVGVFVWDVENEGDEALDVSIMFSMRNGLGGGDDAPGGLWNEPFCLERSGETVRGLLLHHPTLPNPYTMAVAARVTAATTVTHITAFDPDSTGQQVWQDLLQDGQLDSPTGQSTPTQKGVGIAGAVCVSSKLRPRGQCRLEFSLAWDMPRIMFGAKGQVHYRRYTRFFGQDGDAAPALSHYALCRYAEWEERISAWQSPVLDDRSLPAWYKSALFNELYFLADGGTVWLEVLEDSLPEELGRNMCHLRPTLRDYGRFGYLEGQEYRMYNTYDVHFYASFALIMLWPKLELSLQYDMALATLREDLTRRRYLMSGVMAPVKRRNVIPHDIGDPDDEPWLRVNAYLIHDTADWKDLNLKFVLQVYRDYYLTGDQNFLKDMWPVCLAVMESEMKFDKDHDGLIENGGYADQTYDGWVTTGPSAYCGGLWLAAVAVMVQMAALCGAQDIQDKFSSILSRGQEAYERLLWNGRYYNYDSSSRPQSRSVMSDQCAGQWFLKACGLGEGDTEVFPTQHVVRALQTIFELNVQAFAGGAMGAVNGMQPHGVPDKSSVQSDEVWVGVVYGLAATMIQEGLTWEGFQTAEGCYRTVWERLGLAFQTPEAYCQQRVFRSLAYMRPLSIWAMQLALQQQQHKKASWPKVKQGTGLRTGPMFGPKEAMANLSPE
Protocol: as §1, §2, §3, §4, §5, §6, §7, §8, §9, §10, §11, §12, §13, §14, §15, §16, §17, §18, §19

Row | Compound | IC50 [1] | IC50 [2] | target glucosidases labeled by the ABP [3] | IC50 [4]
1 | CN1/C(=C/C=C/C=C/C2=[N+](CCCCCC(=O)NCc3cn(CCCCCCCCN4[C@@H]5[C@H](CO)[C@@H](O)[C@H](O)[C@@H](O)[C@@H]54)nn3)c3ccccc3C2(C)C)C(C)(C)c2ccccc21 (stereo partly drawn) [Compound 1] | 31 ± 5 nM | 0.54 ± 0.21 nM | modifies all three GBAs | 145 ± 26 nM
2 | CN1/C(=C/C=C/C=C/C2=[N+](CCCCCC(=O)NCc3cn(C[C@@H]4[C@@H](O)[C@H](O)[C@@H](O)[C@@H]5O[C@H]45)nn3)c3ccccc3C2(C)C)C(C)(C)c2ccccc21 [Compound 3] | > 15000 nM | 42 ± 4 nM | – | > 15000 nM
3 | CN1/C(=C/C=C/C=C/C2=[N+](CCCCCC(=O)NCc3cn(CCCCCCCCN4[C@@H]5[C@H](CO)C[C@H](O)[C@@H](O)[C@@H]54)nn3)c3ccccc3C2(C)C)C(C)(C)c2ccccc21 (stereo partly drawn) [Compound 4] | 260 ± 60 nM | 260 ± 10 nM | label all three target glucosidases | 240 ± 30 nM
4 | CN1/C(=C/C=C/C=C/C2=[N+](CCCCCC(=O)NCc3cn(CCCCCCCCN4[C@@H]5[C@H](CO)C[C@H](O)C[C@@H]54)nn3)c3ccccc3C2(C)C)C(C)(C)c2ccccc21 (stereo partly drawn) [Compound 5] | 1230 ± 80 nM | 32000 ± 3000 nM | GBA2 and, to a lesser extent, GBA3 | 230 ± 10 nM
